# Source: paper PMC4490784, “Compensatory induction of MYC expression by sustained CDK9 inhibition via a BRD4-dependent mechanism” (eLife, 2015)
# Experiments:
# Test in all cases: KINOMEscan binding assay
# MYO3A = target: T1, MYO3A (Homo sapiens, UniProt Q8NEV4); conditions: read-out: % Retention on Solid Support
# T1 construct: purchased DiscoveRx KINOMEscan
# Outline: (§1)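 Active site-directed competition binding measured kinase engagement within a panel of over 400 kinases. i-CDK9 was tested at two concentrations, 1 and 10 µM.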
# TRKA = target: T2, TRKA (Homo sapiens, UniProt P04629); conditions: read-out: % Retention on Solid Support
# T2 construct: purchased DiscoveRx KINOMEscan
# T2 sequence (P04629 33-796): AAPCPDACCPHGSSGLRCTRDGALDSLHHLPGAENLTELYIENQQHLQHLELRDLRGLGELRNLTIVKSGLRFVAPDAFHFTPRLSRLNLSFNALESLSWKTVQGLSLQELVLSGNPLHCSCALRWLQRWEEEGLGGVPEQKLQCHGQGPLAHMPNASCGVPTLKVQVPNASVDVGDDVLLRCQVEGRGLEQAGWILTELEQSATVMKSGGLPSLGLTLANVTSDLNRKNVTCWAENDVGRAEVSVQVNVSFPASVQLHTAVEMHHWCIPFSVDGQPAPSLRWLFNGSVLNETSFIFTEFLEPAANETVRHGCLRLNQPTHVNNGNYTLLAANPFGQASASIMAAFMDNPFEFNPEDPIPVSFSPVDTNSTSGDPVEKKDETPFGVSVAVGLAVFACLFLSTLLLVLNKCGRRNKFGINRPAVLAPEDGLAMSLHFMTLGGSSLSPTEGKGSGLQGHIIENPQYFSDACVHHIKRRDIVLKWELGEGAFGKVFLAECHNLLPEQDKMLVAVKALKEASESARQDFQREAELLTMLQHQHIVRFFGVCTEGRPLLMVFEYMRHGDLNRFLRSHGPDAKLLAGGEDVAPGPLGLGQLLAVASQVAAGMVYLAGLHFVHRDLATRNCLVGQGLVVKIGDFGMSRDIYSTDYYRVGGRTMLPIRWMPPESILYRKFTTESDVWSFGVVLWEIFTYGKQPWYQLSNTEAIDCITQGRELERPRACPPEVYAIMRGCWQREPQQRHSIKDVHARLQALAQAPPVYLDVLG
# Outline: as §1
# EGFR(G719C) = target: T3, EGFR(G719C) (Homo sapiens, UniProt P00533, G719C)
# T3 construct: purchased DiscoveRx KINOMEscan
# Outline: as §1
# PYK2 = target: T4, PYK2 (Homo sapiens, UniProt Q14289); conditions: read-out: % Retention on Solid Support
# T4 construct: purchased DiscoveRx KINOMEscan
# T4 sequence (Q14289 whole entry): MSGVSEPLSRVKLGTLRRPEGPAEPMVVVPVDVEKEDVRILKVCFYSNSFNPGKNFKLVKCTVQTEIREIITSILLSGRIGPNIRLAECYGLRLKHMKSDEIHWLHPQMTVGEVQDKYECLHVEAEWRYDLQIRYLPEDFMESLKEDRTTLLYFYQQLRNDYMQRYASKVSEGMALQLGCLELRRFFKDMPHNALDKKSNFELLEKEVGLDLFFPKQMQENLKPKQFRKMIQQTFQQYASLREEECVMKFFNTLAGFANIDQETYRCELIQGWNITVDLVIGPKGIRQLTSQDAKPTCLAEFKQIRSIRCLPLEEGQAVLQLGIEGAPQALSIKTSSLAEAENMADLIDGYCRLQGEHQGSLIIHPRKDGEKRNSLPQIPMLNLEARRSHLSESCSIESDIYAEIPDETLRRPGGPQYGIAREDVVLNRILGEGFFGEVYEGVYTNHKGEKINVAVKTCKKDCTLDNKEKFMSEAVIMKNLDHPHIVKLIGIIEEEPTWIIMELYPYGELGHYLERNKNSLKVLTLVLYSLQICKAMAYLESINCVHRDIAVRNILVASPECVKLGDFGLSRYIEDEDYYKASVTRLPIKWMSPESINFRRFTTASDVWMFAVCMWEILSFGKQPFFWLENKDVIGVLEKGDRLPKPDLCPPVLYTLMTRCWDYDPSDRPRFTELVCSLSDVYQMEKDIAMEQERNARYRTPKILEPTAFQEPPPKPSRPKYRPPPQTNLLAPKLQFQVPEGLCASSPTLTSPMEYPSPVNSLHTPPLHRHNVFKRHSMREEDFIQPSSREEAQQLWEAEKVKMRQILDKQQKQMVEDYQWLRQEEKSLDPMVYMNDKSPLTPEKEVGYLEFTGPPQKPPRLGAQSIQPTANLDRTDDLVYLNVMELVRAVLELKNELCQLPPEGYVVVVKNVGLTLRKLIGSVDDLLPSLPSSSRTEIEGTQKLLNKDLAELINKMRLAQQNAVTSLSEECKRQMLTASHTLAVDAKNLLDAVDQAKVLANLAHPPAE
# Outline: as §1
# PKN1 = target: T5, PKN1 (Homo sapiens, UniProt Q16512); conditions: read-out: % Retention on Solid Support
# T5 construct: purchased DiscoveRx KINOMEscan
# Outline: as §1
# [1] = target: T6, RSK3(Kin.Dom.1-N-terminal) (Homo sapiens, UniProt Q15349); conditions: read-out: % Retention on Solid Support
# T6 construct: RSK3(Kin.Dom.1-N-terminal); purchased DiscoveRx KINOMEscan
# Outline: as §1
# ACVR1B = target: T7, ACVR1B (Homo sapiens, UniProt P36896); conditions: read-out: % Retention on Solid Support
# T7 construct: purchased DiscoveRx KINOMEscan
# Outline: as §1
# EGFR(G719S) = target: T8, EGFR(G719S) (Homo sapiens, UniProt P00533, G719S)
# T8 construct: purchased DiscoveRx KINOMEscan
# Outline: as §1
# CDKL5 = target: T9, CDKL5 (Homo sapiens, UniProt O76039); conditions: read-out: % Retention on Solid Support
# T9 construct: purchased DiscoveRx KINOMEscan
# T9 sequence (O76039 whole entry): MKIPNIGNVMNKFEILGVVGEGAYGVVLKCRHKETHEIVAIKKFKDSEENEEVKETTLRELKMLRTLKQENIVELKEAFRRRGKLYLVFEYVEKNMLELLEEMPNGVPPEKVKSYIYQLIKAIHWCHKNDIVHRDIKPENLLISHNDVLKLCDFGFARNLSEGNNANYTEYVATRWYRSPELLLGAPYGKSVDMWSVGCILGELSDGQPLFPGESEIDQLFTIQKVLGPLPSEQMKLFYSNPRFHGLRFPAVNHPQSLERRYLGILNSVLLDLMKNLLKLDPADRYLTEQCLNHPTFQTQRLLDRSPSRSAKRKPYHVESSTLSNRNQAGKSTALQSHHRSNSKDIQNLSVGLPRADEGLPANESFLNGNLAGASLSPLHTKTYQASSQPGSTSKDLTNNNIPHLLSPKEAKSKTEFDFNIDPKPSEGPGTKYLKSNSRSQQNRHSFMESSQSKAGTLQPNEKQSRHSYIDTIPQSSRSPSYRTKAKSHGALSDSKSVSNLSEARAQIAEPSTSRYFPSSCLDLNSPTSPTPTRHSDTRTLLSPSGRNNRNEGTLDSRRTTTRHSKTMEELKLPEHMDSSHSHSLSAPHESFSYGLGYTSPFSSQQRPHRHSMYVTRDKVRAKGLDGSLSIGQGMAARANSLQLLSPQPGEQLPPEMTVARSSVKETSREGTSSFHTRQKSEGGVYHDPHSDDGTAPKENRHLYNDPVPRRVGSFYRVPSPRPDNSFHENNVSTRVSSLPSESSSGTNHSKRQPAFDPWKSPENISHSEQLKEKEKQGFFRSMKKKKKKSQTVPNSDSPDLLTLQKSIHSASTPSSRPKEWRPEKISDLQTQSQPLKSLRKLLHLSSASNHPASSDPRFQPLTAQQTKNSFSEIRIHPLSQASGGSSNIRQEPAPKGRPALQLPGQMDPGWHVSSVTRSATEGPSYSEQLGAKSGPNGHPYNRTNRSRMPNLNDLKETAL
# Outline: as §1
# PIP5K2C = target: T10, PIP5K2C (Homo sapiens, UniProt Q8TBX8); conditions: 1 µM i-CDK9; read-out: % Retention on Solid Support
# T10 construct: purchased DiscoveRx KINOMEscan
# Outline: as §1
# PIP5K1C = target: T11, PIP5K1C (Homo sapiens, UniProt O60331); conditions: 1 µM i-CDK9
# T11 construct: purchased DiscoveRx KINOMEscan
# Outline: as §1
# CDK8 = target: T12, CDK8 (Homo sapiens, UniProt P49336)
# T12 construct: purchased DiscoveRx KINOMEscan
# Outline: as §1
# ERBB2 = target: T13, ERBB2 (Homo sapiens, UniProt P04626); conditions: read-out: % Retention on Solid Support
# T13 construct: purchased DiscoveRx KINOMEscan
# Outline: as §1
# YANK2 = target: T14, YANK2 (Homo sapiens, UniProt Q9NY57); conditions: read-out: % Retention on Solid Support
# T14 construct: purchased DiscoveRx KINOMEscan
# Outline: as §1
# MLK2 = target: T15, MLK2 (Homo sapiens, UniProt Q02779); conditions: read-out: % Retention on Solid Support
# T15 construct: purchased DiscoveRx KINOMEscan
# Outline: as §1
# ERK4 = target: T16, ERK4 (Homo sapiens, UniProt P31152); conditions: read-out: % Retention on Solid Support
# T16 construct: purchased DiscoveRx KINOMEscan
# Outline: as §1
# FYN = target: T17, FYN (Homo sapiens, UniProt P06241); conditions: read-out: % Retention on Solid Support
# T17 construct: purchased DiscoveRx KINOMEscan
# T17 sequence (P06241 whole entry): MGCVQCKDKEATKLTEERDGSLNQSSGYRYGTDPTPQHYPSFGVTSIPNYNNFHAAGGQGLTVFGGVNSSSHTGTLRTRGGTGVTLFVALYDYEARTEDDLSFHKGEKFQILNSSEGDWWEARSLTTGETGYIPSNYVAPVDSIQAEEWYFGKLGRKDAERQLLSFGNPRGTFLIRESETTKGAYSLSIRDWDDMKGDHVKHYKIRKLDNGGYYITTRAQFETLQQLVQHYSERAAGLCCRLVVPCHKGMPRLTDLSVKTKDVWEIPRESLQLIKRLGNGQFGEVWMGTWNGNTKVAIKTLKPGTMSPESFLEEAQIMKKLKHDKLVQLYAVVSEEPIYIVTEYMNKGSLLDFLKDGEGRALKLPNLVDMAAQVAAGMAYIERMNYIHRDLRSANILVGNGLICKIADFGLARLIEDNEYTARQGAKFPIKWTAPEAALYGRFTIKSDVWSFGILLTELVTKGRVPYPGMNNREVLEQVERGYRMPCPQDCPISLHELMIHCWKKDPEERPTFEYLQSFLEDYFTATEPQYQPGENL
# Outline: as §1
# SRC = target: T18, SRC (Homo sapiens, UniProt P12931); conditions: read-out: % Retention on Solid Support
# T18 construct: purchased DiscoveRx KINOMEscan
# Outline: as §1
# NEK7 = target: T19, NEK7 (Homo sapiens, UniProt Q8TDX7); conditions: read-out: % Retention on Solid Support
# T19 construct: purchased DiscoveRx KINOMEscan
# Outline: as §1
# BMPR1B = target: T20, BMPR1B (Homo sapiens, UniProt O00238); conditions: read-out: % Retention on Solid Support
# T20 construct: purchased DiscoveRx KINOMEscan
# Outline: as §1
# CAMK1 = target: T21, CAMK1 (Homo sapiens, UniProt Q14012); conditions: read-out: % Retention on Solid Support
# T21 construct: purchased DiscoveRx KINOMEscan
# Outline: as §1
# FLT3(D835H) = target: T22, FLT3(D835H) (Homo sapiens, UniProt P36888, D835H); conditions: read-out: % Retention on Solid Support
# T22 construct: purchased DiscoveRx KINOMEscan
# Outline: as §1
# ABL2 = target: T23, ABL2 (Homo sapiens, UniProt P42684); conditions: read-out: % Retention on Solid Support
# T23 construct: purchased DiscoveRx KINOMEscan
# Outline: as §1
# MST1R = target: T24, MST1R (Homo sapiens, UniProt Q04912); conditions: read-out: % Retention on Solid Support
# T24 construct: purchased DiscoveRx KINOMEscan
# Outline: as §1
# LIMK2 = target: T25, LIMK2 (Homo sapiens, UniProt P53671); conditions: read-out: % Retention on Solid Support
# T25 construct: purchased DiscoveRx KINOMEscan
# Outline: as §1
# [2] = target: T26, RSK3(Kin.Dom.2-C-terminal) (Homo sapiens, UniProt Q15349); conditions: read-out: % Retention on Solid Support
# T26 construct: RSK3(Kin.Dom.2-C-terminal); purchased DiscoveRx KINOMEscan
# Outline: as §1
# T1 sequence (Q8NEV4 whole entry): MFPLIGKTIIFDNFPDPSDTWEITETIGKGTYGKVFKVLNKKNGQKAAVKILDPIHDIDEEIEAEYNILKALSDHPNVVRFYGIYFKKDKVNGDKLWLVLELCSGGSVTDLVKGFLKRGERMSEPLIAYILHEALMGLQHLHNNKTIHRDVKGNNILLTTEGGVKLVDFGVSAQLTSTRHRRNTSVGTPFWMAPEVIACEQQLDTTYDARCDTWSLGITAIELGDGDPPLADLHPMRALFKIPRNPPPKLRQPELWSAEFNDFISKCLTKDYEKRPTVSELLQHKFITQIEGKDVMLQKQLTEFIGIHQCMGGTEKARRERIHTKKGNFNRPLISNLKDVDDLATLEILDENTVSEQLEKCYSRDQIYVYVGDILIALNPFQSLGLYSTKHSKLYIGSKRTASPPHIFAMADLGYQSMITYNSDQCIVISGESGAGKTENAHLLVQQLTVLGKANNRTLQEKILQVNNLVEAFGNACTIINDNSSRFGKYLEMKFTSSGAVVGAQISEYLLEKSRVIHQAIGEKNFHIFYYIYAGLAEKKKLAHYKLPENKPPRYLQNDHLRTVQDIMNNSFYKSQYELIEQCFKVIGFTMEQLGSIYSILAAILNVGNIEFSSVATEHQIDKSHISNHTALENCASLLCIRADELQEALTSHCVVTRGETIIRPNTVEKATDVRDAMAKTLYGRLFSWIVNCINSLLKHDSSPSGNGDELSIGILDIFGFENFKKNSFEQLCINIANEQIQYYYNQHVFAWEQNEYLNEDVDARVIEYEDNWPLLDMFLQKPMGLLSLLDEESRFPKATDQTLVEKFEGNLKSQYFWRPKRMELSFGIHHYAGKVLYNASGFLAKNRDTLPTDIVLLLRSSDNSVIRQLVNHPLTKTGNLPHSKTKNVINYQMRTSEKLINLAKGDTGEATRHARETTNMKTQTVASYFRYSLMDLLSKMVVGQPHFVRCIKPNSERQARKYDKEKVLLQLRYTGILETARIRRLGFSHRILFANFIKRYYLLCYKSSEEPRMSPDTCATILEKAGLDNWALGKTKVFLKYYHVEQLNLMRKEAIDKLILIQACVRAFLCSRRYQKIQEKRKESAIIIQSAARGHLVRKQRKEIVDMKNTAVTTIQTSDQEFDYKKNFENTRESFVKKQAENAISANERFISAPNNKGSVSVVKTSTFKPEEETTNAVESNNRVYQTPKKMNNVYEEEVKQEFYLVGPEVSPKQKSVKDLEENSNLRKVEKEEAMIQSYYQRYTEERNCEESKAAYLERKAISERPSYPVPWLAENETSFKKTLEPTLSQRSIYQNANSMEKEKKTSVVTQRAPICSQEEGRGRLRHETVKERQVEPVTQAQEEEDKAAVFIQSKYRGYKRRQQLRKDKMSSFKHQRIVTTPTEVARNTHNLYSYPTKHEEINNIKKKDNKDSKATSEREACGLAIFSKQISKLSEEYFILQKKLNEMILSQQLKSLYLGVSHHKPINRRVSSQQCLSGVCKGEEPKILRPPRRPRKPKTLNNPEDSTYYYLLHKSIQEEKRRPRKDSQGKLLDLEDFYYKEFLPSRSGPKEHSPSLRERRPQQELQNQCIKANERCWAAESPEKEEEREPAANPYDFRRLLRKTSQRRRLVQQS
smiles,measurement,setting,value
"N[C@H]1CC[C@H](Nc2cc(-c3cccc(NCc4cccc(F)c4)n3)c(Cl)cn2)CC1 [i-CDK9, N2′-(trans-4-aminocyclohexyl)-5′-chloro-N6-(3-fluorobenzyl)-2,4′-bipyridine-2′,6-diamine]",remaining binding at 1 µM,MYO3A; 1 µM i-CDK9,91%
same,remaining binding at 10 µM,MYO3A; 10 µM i-CDK9,96%
same,remaining binding at 1 µM,TRKA; 1 µM i-CDK9,100%
same,remaining binding at 10 µM,TRKA; 10 µM i-CDK9,89%
same,% Retention on Solid Support,EGFR(G719C); 1 µM i-CDK9,86%
same,% Retention on Solid Support,EGFR(G719C); 10 µM i-CDK9,46%
same,remaining binding at 1 µM,PYK2; 1 µM i-CDK9,100%
same,remaining binding at 10 µM,PYK2; 10 µM i-CDK9,100%
same,remaining binding at 1 µM,PKN1; 1 µM i-CDK9,73%
same,remaining binding at 10 µM,PKN1; 10 µM i-CDK9,100%
same,remaining binding at 1 µM,[1]; 1 µM i-CDK9,100%
same,remaining binding at 10 µM,[1]; 10 µM i-CDK9,78%
same,remaining binding at 1 µM,ACVR1B; 1 µM i-CDK9,69%
same,remaining binding at 10 µM,ACVR1B; 10 µM i-CDK9,100%
same,% Retention on Solid Support,EGFR(G719S); 1 µM i-CDK9,100%
same,% Retention on Solid Support,EGFR(G719S); 10 µM i-CDK9,100%
same,remaining binding at 1 µM,CDKL5; 1 µM i-CDK9,52%
same,remaining binding at 10 µM,CDKL5; 10 µM i-CDK9,3.8%
same,remaining binding at 1 µM,PIP5K2C,100%
same,% Retention on Solid Support,PIP5K1C,85%
same,% Retention on Solid Support,CDK8; 1 µM i-CDK9,44%
same,% Retention on Solid Support,CDK8; 10 µM i-CDK9,100%
same,remaining binding at 1 µM,ERBB2; 1 µM i-CDK9,88%
same,remaining binding at 10 µM,ERBB2; 10 µM i-CDK9,100%
same,remaining binding at 1 µM,YANK2; 1 µM i-CDK9,90%
same,remaining binding at 10 µM,YANK2; 10 µM i-CDK9,100%
same,remaining binding at 1 µM,MLK2; 1 µM i-CDK9,100%
same,remaining binding at 10 µM,MLK2; 10 µM i-CDK9,100%
same,remaining binding at 1 µM,ERK4; 1 µM i-CDK9,100%
same,remaining binding at 10 µM,ERK4; 10 µM i-CDK9,100%
same,remaining binding at 1 µM,FYN; 1 µM i-CDK9,69%
same,remaining binding at 10 µM,FYN; 10 µM i-CDK9,100%
same,remaining binding at 1 µM,SRC; 1 µM i-CDK9,87%
same,remaining binding at 10 µM,SRC; 10 µM i-CDK9,100%
same,remaining binding at 1 µM,NEK7; 1 µM i-CDK9,100%
same,remaining binding at 10 µM,NEK7; 10 µM i-CDK9,100%
same,remaining binding at 1 µM,BMPR1B; 1 µM i-CDK9,100%
same,remaining binding at 10 µM,BMPR1B; 10 µM i-CDK9,89%
same,remaining binding at 1 µM,CAMK1; 1 µM i-CDK9,96%
same,remaining binding at 10 µM,CAMK1; 10 µM i-CDK9,100%
same,remaining binding at 1 µM,FLT3(D835H); 1 µM i-CDK9,100%
same,remaining binding at 10 µM,FLT3(D835H); 10 µM i-CDK9,70%
same,remaining binding at 1 µM,ABL2; 1 µM i-CDK9,100%
same,remaining binding at 10 µM,ABL2; 10 µM i-CDK9,100%
same,remaining binding at 1 µM,MST1R; 1 µM i-CDK9,100%
same,remaining binding at 10 µM,MST1R; 10 µM i-CDK9,100%
same,remaining binding at 1 µM,LIMK2; 1 µM i-CDK9,100%
same,remaining binding at 10 µM,LIMK2; 10 µM i-CDK9,100%
same,remaining binding at 1 µM,[2]; 1 µM i-CDK9,73%
same,remaining binding at 10 µM,[2]; 10 µM i-CDK9,100%
